Reference: patent publication US20220281848A1, “PYRAZOLE-SUBSTITUTED PYRROLIDINONES AS HERBICIDES” (FMC Corporation, priority 2019, published 2022)

System: plants
Test: Test D pre-emergence, other plants of Tables D1 and D3
Type: in vivo
Conditions: pre-emergence, 100=total damage, 0=no damage
Outline: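 Seeds treated with herbicide safener; sown in soil; glasshouse, 16 h light, 65% humidity. Sprayed day 1 (pre) or ~day 12 (post). Spray in 0.2% v/v adjuvant. Scored 0–100 damage: 20 DAA pre, 15 d post.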

For `CN1CC(c2cc(C(F)(F)F)n(C)n2)C(C(=O)Nc2ccc(F)nc2F)C1=O` (racemic) [Compound 22], the “damage to plant, ALOMY” value (rate 15, 20 DAA) was 0, the “damage to plant, AVEFA” value (rate 15, 20 DAA) was 0 and the “damage to plant, BEAVA” value (rate 15, 20 DAA) was 0. For the same molecule, the “damage to plant, BROTE” value (rate 15, 20 DAA) was 0, the “damage to plant, BRSNN” value (rate 15, 20 DAA) was 0 and the “damage to plant, CHEAL” value (rate 15, 20 DAA) was 0. For the same molecule, the “damage to plant, GALAP” value (rate 15, 20 DAA) was 0, the “damage to plant, HORVW” value (rate 15, 20 DAA) was 0 and the “damage to plant, KCHSC” value (rate 15, 20 DAA) was 0. The “damage to plant, LOLPE” value (rate 15, 20 DAA) was 0, the “damage to plant, POAAN” value (rate 15, 20 DAA) was 0 and the “damage to plant, POLCO” value (rate 15, 20 DAA) was 0. The “damage to plant, SINAR” value (rate 15, 20 DAA) was 0, the “damage to plant, STEME” value (rate 15, 20 DAA) was 0 and the “damage to plant, VERPE” value (rate 15, 20 DAA) was 0. For the same molecule, the “damage to plant, ALOMY” value (rate 30, 20 DAA) was 0, the “damage to plant, AVEFA” value (rate 30, 20 DAA) was 0 and the “damage to plant, BEAVA” value (rate 30, 20 DAA) was 0. The “damage to plant, BROTE” value (rate 30, 20 DAA) was 0, the “damage to plant, BRSNN” value (rate 30, 20 DAA) was 0 and the “damage to plant, CHEAL” value (rate 30, 20 DAA) was 0. The “damage to plant, GALAP” value (rate 30, 20 DAA) was 0, the “damage to plant, HORVW” value (rate 30, 20 DAA) was 0 and the “damage to plant, KCHSC” value (rate 30, 20 DAA) was 0. For the same molecule, the “damage to plant, LOLPE” value (rate 30, 20 DAA) was 0, the “damage to plant, POAAN” value (rate 30, 20 DAA) was 0 and the “damage to plant, POLCO” value (rate 30, 20 DAA) was 0. The “damage to plant, SINAR” value (rate 30, 20 DAA) was 0, the “damage to plant, STEME” value (rate 30, 20 DAA) was 0 and the “damage to plant, VERPE” value (rate 30, 20 DAA) was 0. For the same molecule, the “damage to plant, ALOMY” value (rate 60, 20 DAA) was 0, the “damage to plant, AVEFA” value (rate 60, 20 DAA) was 0 and the “damage to plant, BEAVA” value (rate 60, 20 DAA) was 0. The “damage to plant, BROTE” value (rate 60, 20 DAA) was 0, the “damage to plant, BRSNN” value (rate 60, 20 DAA) was 0 and the “damage to plant, CHEAL” value (rate 60, 20 DAA) was 20. For the same molecule, the “damage to plant, GALAP” value (rate 60, 20 DAA) was 0, the “damage to plant, HORVW” value (rate 60, 20 DAA) was 0 and the “damage to plant, KCHSC” value (rate 60, 20 DAA) was 0. For the same molecule, the “damage to plant, LOLPE” value (rate 60, 20 DAA) was 0, the “damage to plant, POAAN” value (rate 60, 20 DAA) was 0 and the “damage to plant, POLCO” value (rate 60, 20 DAA) was 0. For the same molecule, the “damage to plant, SINAR” value (rate 60, 20 DAA) was 0, the “damage to plant, STEME” value (rate 60, 20 DAA) was 10 and the “damage to plant, VERPE” value (rate 60, 20 DAA) was 0. For the same molecule, the “damage to plant, ALOMY” value (rate 130, 20 DAA) was 0, the “damage to plant, AVEFA” value (rate 130, 20 DAA) was 0 and the “damage to plant, BEAVA” value (rate 130, 20 DAA) was 0. For the same molecule, the “damage to plant, BROTE” value (rate 130, 20 DAA) was 0, the “damage to plant, BRSNN” value (rate 130, 20 DAA) was 0 and the “damage to plant, CHEAL” value (rate 130, 20 DAA) was 10. For the same molecule, the “damage to plant, GALAP” value (rate 130, 20 DAA) was 0, the “damage to plant, HORVW” value (rate 130, 20 DAA) was 0 and the “damage to plant, KCHSC” value (rate 130, 20 DAA) was 0. The “damage to plant, LOLPE” value (rate 130, 20 DAA) was 10, the “damage to plant, POAAN” value (rate 130, 20 DAA) was 20 and the “damage to plant, POLCO” value (rate 130, 20 DAA) was 0. For the same molecule, the “damage to plant, SINAR” value (rate 130, 20 DAA) was 0, the “damage to plant, STEME” value (rate 130, 20 DAA) was 10 and the “damage to plant, VERPE” value (rate 130, 20 DAA) was 20. For the same molecule, the “damage to plant, ALOMY” value (rate 250, 20 DAA) was 0, the “damage to plant, AVEFA” value (rate 250, 20 DAA) was 0 and the “damage to plant, BEAVA” value (rate 250, 20 DAA) was 0. The “damage to plant, BROTE” value (rate 250, 20 DAA) was 0, the “damage to plant, BRSNN” value (rate 250, 20 DAA) was 0 and the “damage to plant, CHEAL” value (rate 250, 20 DAA) was 80. The “damage to plant, GALAP” value (rate 250, 20 DAA) was 0, the “damage to plant, HORVW” value (rate 250, 20 DAA) was 0 and the “damage to plant, KCHSC” value (rate 250, 20 DAA) was 0. The “damage to plant, LOLPE” value (rate 250, 20 DAA) was 20, the “damage to plant, POAAN” value (rate 250, 20 DAA) was 40 and the “damage to plant, POLCO” value (rate 250, 20 DAA) was 10. For the same molecule, the “damage to plant, SINAR” value (rate 250, 20 DAA) was 0, the “damage to plant, STEME” value (rate 250, 20 DAA) was 30 and the “damage to plant, VERPE” value (rate 250, 20 DAA) was 30. For the same molecule, the “damage to plant, ALOMY” value (rate 500, 20 DAA) was 20, the “damage to plant, AVEFA” value (rate 500, 20 DAA) was 0 and the “damage to plant, BEAVA” value (rate 500, 20 DAA) was 0. The “damage to plant, BROTE” value (rate 500, 20 DAA) was 0, the “damage to plant, BRSNN” value (rate 500, 20 DAA) was 0 and the “damage to plant, CHEAL” value (rate 500, 20 DAA) was 40. For the same molecule, the “damage to plant, GALAP” value (rate 500, 20 DAA) was 0, the “damage to plant, HORVW” value (rate 500, 20 DAA) was 0 and the “damage to plant, KCHSC” value (rate 500, 20 DAA) was 0. The “damage to plant, LOLPE” value (rate 500, 20 DAA) was 30, the “damage to plant, POAAN” value (rate 500, 20 DAA) was 60 and the “damage to plant, POLCO” value (rate 500, 20 DAA) was 20. The “damage to plant, SINAR” value (rate 500, 20 DAA) was 0, the “damage to plant, STEME” value (rate 500, 20 DAA) was 40 and the “damage to plant, VERPE” value (rate 500, 20 DAA) was 100.
